Test results published in US10004701B2, “Methods and compositions for treating infection” (UNIVERSITY OF ROCHESTER, priority 2012, dated 2018).
Where a name gives a salt, the structure may show the parent alone. Read-outs that look alike come from different tables or passages of the source.

Tests used:
Assay in all cases: AK assay 384-well format, Prestwick library screening
[1] = test system: A. baumannii strain 98-37-09; assay type: cell-based, Acinetobacter baumannii; details: 50 μM final drug concentration; for fold induction at 50 µM: Acinetobacter baumannii, 983709, 3 h
[2] = test system: E. coli; assay type: cell-based, Escherichia coli; details: 50 μM final drug concentration; for fold induction at 50 µM: Escherichia coli, 3 h
[3] = test system: E. cloacae; assay type: cell-based, Enterobacter cloacae; details: 50 μM final drug concentration; for fold induction at 50 µM: Enterobacter cloacae, 3 h
[4] = test system: P. aeruginosa; assay type: cell-based, Pseudomonas aeruginosa; details: 50 μM final drug concentration; for fold induction at 50 µM: Pseudomonas aeruginosa, 3 h
[5] = test system: E. faecium; assay type: cell-based, Enterococcus faecium; details: 50 μM final drug concentration; for fold induction at 50 µM: Enterococcus faecium, 3 h
[6] = test system: K. pneumoniae; assay type: cell-based, Klebsiella pneumoniae; details: 50 μM final drug concentration; for fold induction at 50 µM: Klebsiella pneumoniae, 3 h
[7] = test system: S. aureus strain USA300-0114; assay type: cell-based, Staphylococcus aureus; details: 50 μM final drug concentration; for fold induction at 50 µM: Staphylococcus aureus, USA300, 3 h
[8] = planktonic A. baumannii, cutoff for positive-scoring molecules 3-fold increase, read-out: AK-based Prestwick Library Screening Results, A. baumannii (increase in extracellular AK activity)
[9] = planktonic E. coli, cutoff for positive-scoring molecules 3-fold increase, read-out: AK-based Prestwick Library Screening Results, E. coli (increase in extracellular AK activity)
[10] = planktonic E. cloacae, cutoff for positive-scoring molecules 3-fold increase, read-out: AK-based Prestwick Library Screening Results, E. cloacae (increase in extracellular AK activity)
[11] = planktonic P. aeruginosa, cutoff for positive-scoring molecules 3-fold increase, read-out: AK-based Prestwick Library Screening Results, P. aeruginosa (increase in extracellular AK activity)
[12] = planktonic E. faecium, cutoff for positive-scoring molecules 3-fold increase, read-out: AK-based Prestwick Library Screening Results, E. faecium (increase in extracellular AK activity)
[13] = planktonic K. pneumoniae, cutoff for positive-scoring molecules 3-fold increase, read-out: AK-based Prestwick Library Screening Results, K. pneumoniae (increase in extracellular AK activity)
[14] = planktonic S. aureus, cutoff for positive-scoring molecules 3-fold increase, read-out: AK-based Prestwick Library Screening Results, S. aureus (increase in extracellular AK activity)
[15] = 384-well format, cutoff for positive-scoring molecules 3-fold increase, read-out: AK-based Prestwick Library Screening Results, A. baumannii (increase in extracellular AK activity)
[16] = 384-well format, cutoff for positive-scoring molecules 3-fold increase, read-out: AK-based Prestwick Library Screening Results, E. coli (increase in extracellular AK activity)
[17] = 384-well format, cutoff for positive-scoring molecules 3-fold increase, read-out: AK-based Prestwick Library Screening Results, E. cloacae (increase in extracellular AK activity)
[18] = 384-well format, cutoff for positive-scoring molecules 3-fold increase, read-out: AK-based Prestwick Library Screening Results, P. aeruginosa (increase in extracellular AK activity)
[19] = 384-well format, cutoff for positive-scoring molecules 3-fold increase, read-out: AK-based Prestwick Library Screening Results, E. faecium (increase in extracellular AK activity)
[20] = 384-well format, cutoff for positive-scoring molecules 3-fold increase, read-out: AK-based Prestwick Library Screening Results, K. pneumoniae (increase in extracellular AK activity)
[21] = 384-well format, cutoff for positive-scoring molecules 3-fold increase, read-out: AK-based Prestwick Library Screening Results, S. aureus (increase in extracellular AK activity)

SMILES: C=CC(N)CCC(=O)O (stereo not shown) [Vigabatrin]
- fold induction at 50 µM [1, 8]: 1.1
- fold induction at 50 µM [2, 9]: 1
- fold induction at 50 µM [3, 10]: 0.8
- fold induction at 50 µM [4, 11]: 0.9
- fold induction at 50 µM [5, 12]: 0.9
- fold induction at 50 µM [6, 13]: 0.8
- fold induction at 50 µM [7, 14]: 0.7

SMILES: CC[C@]12CCCN3CCc4c(n(c5ccccc45)[C@@](O)(C(=O)OC)C1)[C@@H]32 [Vincamine]
- fold induction at 50 µM [1, 15]: 0.9
- fold induction at 50 µM [2, 16]: 0.9
- fold induction at 50 µM [3, 17]: 1.2
- fold induction at 50 µM [4, 18]: 1
- fold induction at 50 µM [5, 19]: 0.9
- fold induction at 50 µM [6, 20]: 0.7
- fold induction at 50 µM [7, 21]: 0.7

SMILES: CCOC(=O)C1=C[C@]2(CC)CCCN3CCc4c(n1c1ccccc41)[C@@H]32 [Vinpocetine]
- fold induction at 50 µM [1, 15]: 0.9
- fold induction at 50 µM [2, 16]: 0.9
- fold induction at 50 µM [3, 17]: 1
- fold induction at 50 µM [4, 18]: 1
- fold induction at 50 µM [5, 19]: 1
- fold induction at 50 µM [6, 20]: 0.8
- fold induction at 50 µM [7, 21]: 0.8

SMILES: O=c1cc(-c2ccc(O)cc2)oc2c([C@@H]3O[C@H](CO)[C@@H](O)[C@H](O)[C@H]3O)c(O)cc(O)c12 [Vitexin]
- fold induction at 50 µM ([1]; planktonic, cutoff for positive-scoring molecules 3-fold increase, read-out: AK-based Prestwick Library Screening Results, A. baumannii (fold increase in extracellular AK activity)): 0.7
- fold induction at 50 µM ([2]; planktonic, […], read-out: AK-based Prestwick Library Screening Results, E. coli (fold increase in extracellular AK activity)): 0.8
- fold induction at 50 µM ([3]; planktonic, cutoff for positive-scoring molecules 3-fold increase, read-out: AK-based Prestwick Library Screening Results, E. cloacae (fold increase in extracellular AK activity)): 0.8
- fold induction at 50 µM ([4]; planktonic, cutoff for positive-scoring molecules 3-fold increase, read-out: AK-based Prestwick Library Screening Results, P. aeruginosa (fold increase in extracellular AK activity)): 0.8
- fold induction at 50 µM ([5]; planktonic, cutoff for positive-scoring molecules 3-fold increase, read-out: AK-based Prestwick Library Screening Results, E. faecium (fold increase in extracellular AK activity)): 1
- fold induction at 50 µM ([6]; planktonic, cutoff for positive-scoring molecules 3-fold increase, read-out: AK-based Prestwick Library Screening Results, K. pneumoniae (fold increase in extracellular AK activity)): 0.8
- fold induction at 50 µM ([7]; planktonic, cutoff for positive-scoring molecules 3-fold increase, read-out: AK-based Prestwick Library Screening Results, S. aureus (fold increase in extracellular AK activity)): 0.7

SMILES: Cc1cccc(C)c1N=C1NCCCS1 [Xylazine]
- fold induction at 50 µM ([1]; planktonic A. baumannii, […], read-out: AK-based Prestwick Library Screening Results, A. baumannii (increase in extracellular AK activity)): 0.9
- fold induction at 50 µM ([2]; planktonic E. coli, […], read-out: AK-based Prestwick Library Screening Results, E. coli (increase in extracellular AK activity)): 0.8
- fold induction at 50 µM ([3]; planktonic E. cloacae, […], read-out: AK-based Prestwick Library Screening Results, E. cloacae (increase in extracellular AK activity)): 1.4
- fold induction at 50 µM ([4]; planktonic P. aeruginosa, […], read-out: AK-based Prestwick Library Screening Results, P. aeruginosa (increase in extracellular AK activity)): 0.9
- fold induction at 50 µM ([5]; planktonic E. faecium, […], read-out: AK-based Prestwick Library Screening Results, E. faecium (increase in extracellular AK activity)): 0.9
- fold induction at 50 µM ([6]; planktonic K. pneumoniae, […], read-out: AK-based Prestwick Library Screening Results, K. pneumoniae (increase in extracellular AK activity)): 0.7
- fold induction at 50 µM ([7]; planktonic S. aureus, […], read-out: AK-based Prestwick Library Screening Results, S. aureus (increase in extracellular AK activity)): 0.8

SMILES: Cc1cc(C(C)(C)C)cc(C)c1CC1=NCCN1 [Xylometazoline hydrochloride]
- fold induction at 50 µM ([1]; planktonic A. baumannii, 384-well, […], read-out: AK-based Prestwick Library Screening Results: A. baumannii (increase in extracellular AK activity)): 1.3
- fold induction at 50 µM ([2]; planktonic E. coli, 384-well, […], read-out: AK-based Prestwick Library Screening Results: E. coli (increase in extracellular AK activity)): 1.2
- fold induction at 50 µM ([3]; planktonic E. cloacae, 384-well, […], read-out: AK-based Prestwick Library Screening Results: E. cloacae (increase in extracellular AK activity)): 1.4
- fold induction at 50 µM ([4]; planktonic P. aeruginosa, 384-well, […], read-out: AK-based Prestwick Library Screening Results: P. aeruginosa (increase in extracellular AK activity)): 1.2
- fold induction at 50 µM ([5]; planktonic E. faecium, 384-well, cutoff for positive-scoring molecules 3-fold increase, read-out: AK-based Prestwick Library Screening Results: E. faecium (increase in extracellular AK activity)): 1
- fold induction at 50 µM ([6]; planktonic K. pneumoniae, 384-well, cutoff for positive-scoring molecules 3-fold increase, read-out: AK-based Prestwick Library Screening Results: K. pneumoniae (increase in extracellular AK activity)): 0.9
- fold induction at 50 µM ([7]; planktonic S. aureus, 384-well, […], read-out: AK-based Prestwick Library Screening Results: S. aureus (increase in extracellular AK activity)): 1.2

SMILES: COC(=O)[C@@H]1[C@H]2C[C@H]3c4[nH]c5ccccc5c4CCN3C[C@@H]2CC[C@@H]1O [Yohimbine hydrochloride]
- fold induction at 50 µM [1, 8]: 0.8
- fold induction at 50 µM [2, 9]: 0.8
- fold induction at 50 µM [3, 10]: 1
- fold induction at 50 µM [4, 11]: 0.9
- fold induction at 50 µM [5, 12]: 0.9
- fold induction at 50 µM [6, 13]: 0.8
- fold induction at 50 µM [7, 14]: 0.6

SMILES: O.O=C(O)[C@@H]1[C@H]2C[C@H]3c4[nH]c5ccccc5c4CCN3C[C@@H]2CC[C@@H]1O [Yohimbinic acid monohydrate]
- AK-based Prestwick Library Screening Results, A. baumannii (increase in extracellular AK activity) ([1]; planktonic A. baumannii, […]): 0.8
- AK-based Prestwick Library Screening Results, E. coli (increase in extracellular AK activity) ([2]; planktonic E. coli, […]): 0.9
- AK-based Prestwick Library Screening Results, E. cloacae (increase in extracellular AK activity) ([3]; planktonic E. cloacae, […]): 0.9
- AK-based Prestwick Library Screening Results, P. aeruginosa (increase in extracellular AK activity) ([4]; planktonic P. aeruginosa, […]): 0.9
- AK-based Prestwick Library Screening Results, E. faecium (increase in extracellular AK activity) ([5]; planktonic E. faecium, […]): 0.9
- AK-based Prestwick Library Screening Results, K. pneumoniae (increase in extracellular AK activity) ([6]; planktonic K. pneumoniae, […]): 0.7
- AK-based Prestwick Library Screening Results, S. aureus (increase in extracellular AK activity) ([7]; planktonic S. aureus, […]): 0.7

SMILES: Nc1ccn([C@H]2CC[C@@H](CO)O2)c(=O)n1 [Zalcitabine]
- fold induction at 50 µM ([1]; planktonic A. baumannii, positive cutoff 3-fold increase, read-out: AK-based Prestwick library screening result, A. baumannii (fold increase in extracellular AK activity)): 1.2
- fold induction at 50 µM ([2]; planktonic E. coli, positive cutoff 3-fold increase, read-out: AK-based Prestwick library screening result, E. coli (fold increase in extracellular AK activity)): 1.3
- fold induction at 50 µM ([3]; planktonic E. cloacae, positive cutoff 3-fold increase, read-out: AK-based Prestwick library screening result, E. cloacae (fold increase in extracellular AK activity)): 1.8
- fold induction at 50 µM ([4]; planktonic P. aeruginosa, positive cutoff 3-fold increase, read-out: AK-based Prestwick library screening result, P. aeruginosa (fold increase in extracellular AK activity)): 1
- fold induction at 50 µM ([5]; planktonic E. faecium, positive cutoff 3-fold increase, read-out: AK-based Prestwick library screening result, E. faecium (fold increase in extracellular AK activity)): 1.1
- fold induction at 50 µM ([6]; planktonic K. pneumoniae, positive cutoff 3-fold increase, read-out: AK-based Prestwick library screening result, K. pneumoniae (fold increase in extracellular AK activity)): 1.1
- fold induction at 50 µM ([7]; planktonic S. aureus, positive cutoff 3-fold increase, read-out: AK-based Prestwick library screening result, S. aureus (fold increase in extracellular AK activity)): 1.1

SMILES: CCCOc1ccccc1-c1nc2nn[nH]c2c(=O)[nH]1 [Zaprinast]
- fold induction at 50 µM [1, 8]: 0.6
- fold induction at 50 µM [2, 9]: 0.7
- fold induction at 50 µM [3, 10]: 0.8
- fold induction at 50 µM [4, 11]: 0.7
- fold induction at 50 µM [5, 12]: 1
- fold induction at 50 µM [6, 13]: 0.5
- fold induction at 50 µM [7, 14]: 0.6
